Reference: patent US20250115600A1, “COVALENT MODIFIERS OF AKT1 AND USES THEREOF” (Terremoto Biosciences, Inc., priority 2022, published 2025)

Tests used:
AKT1 E17K mutant protein = AKT1 E17K mutant protein (Homo sapiens (Human), UniProt P31749, E17K); assay: Intact mass spectrometry, covalent complex formation and ARQ-092 competition; type: binding; conditions: for covalent complex formation with AKT1 E17K mutant protein / covalent complex formation with AKT1 E17K mutant protein in presence of competitor: protein 1 μM, compound 1.5 μM, 2 hrs at 37° C., NaBH4 reduction; for covalent complex formation with AKT1 E17K mutant protein: absence of competitor; for covalent complex formation with AKT1 E17K mutant protein in presence of competitor: with ARQ092 (50 μM); for selectivity of complex formation, AKT1 E17K versus AKT1 WT: comparison of the spectra without competitor
AKT1 E17K mutant protein, sequence (P31749 2-480 E17K): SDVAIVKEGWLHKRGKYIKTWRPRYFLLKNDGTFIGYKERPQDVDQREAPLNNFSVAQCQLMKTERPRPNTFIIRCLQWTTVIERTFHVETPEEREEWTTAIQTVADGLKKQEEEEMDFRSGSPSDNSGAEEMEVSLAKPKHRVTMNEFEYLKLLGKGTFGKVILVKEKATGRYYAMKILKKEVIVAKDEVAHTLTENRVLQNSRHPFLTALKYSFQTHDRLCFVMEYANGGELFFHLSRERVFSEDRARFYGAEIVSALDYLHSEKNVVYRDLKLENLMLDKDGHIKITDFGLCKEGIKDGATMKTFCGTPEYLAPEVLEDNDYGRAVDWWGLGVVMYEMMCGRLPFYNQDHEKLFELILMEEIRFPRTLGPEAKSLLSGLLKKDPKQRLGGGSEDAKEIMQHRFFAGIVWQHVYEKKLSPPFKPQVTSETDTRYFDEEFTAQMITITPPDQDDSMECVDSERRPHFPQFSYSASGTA
Protocol: (§1) AKT1 WT or AKT1 E17K (1 μM) was treated with a compound from Table 1 (1.5 μM) for 2 hrs at 37° C., with and without ARQ092 (50 μM) competitor as a specificity control. Reversible imines were captured by reductive amination with 5 mM NaBH4 for 5 min. Reduction reactions were quenched by diluting the sample in equal volume acetonitrile+1% TFA, then analyzed by LCMS.
(§2) FIGS. 1 to 25 provide intact mass spectra for AKT1 WT protein and AKT1 E17K mutant protein after incubation with compounds of the present disclosure and subsequent borohydride reduction. […] Further, FIGS. 1 to 10, 12, and 14 to 25 each provide intact mass spectra following the incubation of an AKT1 protein with a compound of the present disclosure both in the absence of a competitor molecule (i.e., ARQ-092, a molecule known to bind to and inhibit the function of AKT1); and in the presence of a significant stoichiometric excess of a competitor molecule.

AKT1 WT [1] = target: T1, AKT1 WT (Homo sapiens (Human), UniProt P31749); assay: as above; type: binding; conditions: protein 1 μM, compound 1.5 μM, 2 hrs at 37° C., NaBH4 reduction; for covalent complex formation with AKT1 WT protein: absence of competitor; for covalent complex formation with AKT1 WT protein in presence of competitor: with ARQ092 (50 μM)
Protocol: as §1, §2
Target sequence in this assay (P31749 2-480): as the sequence (P31749 2-480 E17K) above, with K16E counted along it

AKT1 E17K [2] = target: T2, AKT1 E17K (Homo sapiens (Human), UniProt P31749, E17K); assay: Dissociation rate by intact protein LCMS after ARQ092 chase; type: binding; conditions: for AKT1 E17K t1/2: compound 1.5 μM, 2 hours at 37° C., then ARQ092 50 μM; for Off-rate Selectivity E17K/WT: ratio of t1/2
Protocol: (§3) AKT1 WT or AKT1 E17K (1 μM) were treated with a compound of Table 1 (1.5 μM) for 2 hours at 37° C., then ARQ092 (50 μM final concentration) was added to prevent aldehyde-containing compound rebinding after initial dissociation. At various timepoints, aliquots were removed and quenched with 5 mM NaBH4 for 5 min to capture the reversible imine through reductive amination. Reduction reactions were quenched by diluting the sample in equal volume acetonitrile+1% TFA, then analyzed by LCMS. Deconvoluted monoisotopic intensities of unmodified vs. compound-modified mass peaks were compared.
Target sequence in this assay (P31749 2-480 E17K): as the sequence (P31749 2-480 E17K) above

AKT1 WT [3] = target: T1, AKT1 WT; assay: as above; type: binding; conditions: compound 1.5 μM, 2 hours at 37° C., then ARQ092 50 μM
Protocol: as §3
Target sequence in this assay (P31749 2-480): as the sequence (P31749 2-480 E17K) above, with K16E counted along it

AKT1 E17K [4] = target: T2, AKT1 E17K; assay: Live cell target engagement (NanoBRET) in HEK293 cells; type: cell-based; conditions: for IC50: HEK293, 2 hours at 37° C.
Target sequence in this assay (P31749 whole entry E17K): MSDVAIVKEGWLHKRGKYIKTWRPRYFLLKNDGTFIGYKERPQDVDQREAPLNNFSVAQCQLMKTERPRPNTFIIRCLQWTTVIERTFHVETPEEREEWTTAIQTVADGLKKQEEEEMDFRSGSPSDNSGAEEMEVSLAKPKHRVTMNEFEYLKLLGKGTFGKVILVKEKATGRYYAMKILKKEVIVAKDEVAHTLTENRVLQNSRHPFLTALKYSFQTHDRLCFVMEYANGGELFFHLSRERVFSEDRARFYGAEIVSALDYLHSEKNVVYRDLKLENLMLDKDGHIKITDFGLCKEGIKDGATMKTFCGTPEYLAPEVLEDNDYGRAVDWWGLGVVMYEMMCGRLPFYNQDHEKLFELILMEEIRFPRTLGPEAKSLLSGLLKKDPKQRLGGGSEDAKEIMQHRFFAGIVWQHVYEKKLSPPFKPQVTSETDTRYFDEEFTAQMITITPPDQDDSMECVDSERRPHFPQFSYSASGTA

AKT1 WT [5] = target: T1, AKT1 WT; assay: as above; type: cell-based; conditions: HEK293, 2 hours at 37° C.
Target sequence in this assay (P31749 whole entry): as the sequence (P31749 whole entry E17K) above, with K17E counted along it

AKT2 = AKT2 (Homo sapiens (Human), UniProt P31751); assay: as above; type: cell-based; conditions: HEK293, 2 hours at 37° C.
AKT2, sequence (P31751 whole entry): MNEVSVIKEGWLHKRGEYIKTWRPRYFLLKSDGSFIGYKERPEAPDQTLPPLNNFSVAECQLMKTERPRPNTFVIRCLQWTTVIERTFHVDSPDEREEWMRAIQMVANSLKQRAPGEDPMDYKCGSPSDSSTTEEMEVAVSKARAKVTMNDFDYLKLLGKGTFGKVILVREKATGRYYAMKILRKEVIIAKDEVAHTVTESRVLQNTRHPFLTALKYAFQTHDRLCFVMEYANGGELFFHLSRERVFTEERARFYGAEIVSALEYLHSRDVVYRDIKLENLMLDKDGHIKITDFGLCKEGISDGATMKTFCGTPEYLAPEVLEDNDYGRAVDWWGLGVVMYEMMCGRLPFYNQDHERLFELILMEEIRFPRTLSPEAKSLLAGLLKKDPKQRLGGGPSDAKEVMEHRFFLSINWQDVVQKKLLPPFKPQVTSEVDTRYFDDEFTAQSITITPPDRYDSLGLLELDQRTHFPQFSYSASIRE

covalent complex formation with AKT1 WT protein (AKT1 WT [1]) | AKT1 E17K t1/2 (AKT1 E17K [2]) [h] | Off-rate Selectivity E17K/WT (AKT1 E17K [2]) | AKT1 (WT) t1/2 (AKT1 WT [3]) [h] | AKT1 E17K IC50: Selectivity vs AKT1 WT (AKT1 E17K [4]) | AKT1 E17K IC50: Selectivity vs AKT2 (AKT1 E17K [4]) | IC50 (AKT1 E17K [4]) [µM] | IC50 (AKT1 WT [5]) [µM] | IC50 (AKT2) [µM] | Compound | covalent complex formation with AKT1 E17K mutant protein (AKT1 E17K mutant protein) | covalent complex formation with AKT1 E17K mutant protein in presence of competitor (AKT1 E17K mutant protein) | covalent complex formation with AKT1 WT protein in presence of competitor (AKT1 WT [1]) | selectivity of complex formation, AKT1 E17K versus AKT1 WT (AKT1 E17K mutant protein)
significant presence of covalent complex | 1.22 | 6.1 | 0.2 | 5.5 | 130 | < 0.1 | < 0.1 | > 0.5 | Nc1ncccc1-c1nc2cccnc2n1-c1ccc(CNC(=O)C(F)c2ccc(C=O)c(O)c2)cc1 (stereo not drawn) [Compound 74, N-({4-[2-(2-aminopyridin-3-yl)imidazo[4,5-b]pyridin-3-yl]phenyl}methyl)-2-fluoro-2-(4-formyl-3-hydroxyphenyl)acetamide] | significant presence of a covalent complex | Essentially little to no covalent complex formation | Essentially no covalent complex formation | 
presence of a covalent complex |  |  |  | 1.4 | 10 | < 0.1 | < 0.1 | 0.1 to 0.5 | Nc1ncccc1-c1nc2ccc(N3CCOCC3)nc2n1-c1ccc(C2(NC(=O)Cc3ccc(C=O)c(O)c3F)CC2)cc1 [Compound 140, N-(1-{4-[2-(2-aminopyridin-3-yl)-5-(morpholin-4-yl)imidazo[4,5-b]pyridin-3-yl]phenyl}cyclopropyl)-2-(2-fluoro-4-formyl-3-hydroxyphenyl)acetamide] | significant presence of a covalent complex | Essentially no covalent complex formation | Essentially no covalent complex formation | 
presence of a covalent complex |  |  |  | 2 | 6 | < 0.1 | < 0.1 | < 0.1 | Nc1ncccc1-c1nc2ccc(-c3cccc(N4CCOCC4)c3)nc2n1-c1ccc(CNC(=O)c2ccc(O)c(C=O)c2)cc1 [Example 20, N-(4-(2-(2-aminopyridin-3-yl)-5-(3-morpholinophenyl)-3H-imidazo[4,5-b]pyridin-3-yl)benzyl)-3-formyl-4-hydroxybenzamide] | significant presence of a covalent complex | Essentially no covalent complex formation | Essentially no covalent complex formation | selective for complex formation with AKT1 E17K

More lines, now with the values behind:

Compound | covalent complex formation with AKT1 WT protein (AKT1 WT [1]) | AKT1 E17K t1/2 (AKT1 E17K [2]) [h] | Off-rate Selectivity E17K/WT (AKT1 E17K [2]) | AKT1 (WT) t1/2 (AKT1 WT [3]) [h] | AKT1 E17K IC50: Selectivity vs AKT1 WT (AKT1 E17K [4]) | AKT1 E17K IC50: Selectivity vs AKT2 (AKT1 E17K [4]) | IC50 (AKT1 E17K [4]) [µM] | IC50 (AKT1 WT [5]) [µM] | IC50 (AKT2) [µM] | covalent complex formation with AKT1 E17K mutant protein (AKT1 E17K mutant protein) | covalent complex formation with AKT1 E17K mutant protein in presence of competitor (AKT1 E17K mutant protein) | covalent complex formation with AKT1 WT protein in presence of competitor (AKT1 WT [1]) | selectivity of complex formation, AKT1 E17K versus AKT1 WT (AKT1 E17K mutant protein)
Nc1ncccc1-c1nc2ccc(-c3ccccc3)nc2n1-c1ccc(C2(NC(=O)Cc3ccc(C=O)c(O)c3F)CC2)cc1 [Compound 31, N-(1-{4-[2-(2-aminopyridin-3-yl)-5-phenylimidazo[4,5-b]pyridin-3-yl]phenyl}cyclopropyl)-2-(2-fluoro-4-formyl-3-hydroxyphenyl)acetamide] | presence of a covalent complex | 2.52 | 1.8 | 1.43 | 1.4 | 5.8 | < 0.1 | < 0.1 | < 0.1 | significant presence of a covalent complex | Essentially little to no covalent complex formation | Essentially little to no covalent complex formation | 
Nc1ncccc1-c1nc2ccc(-c3ccccc3)nc2n1-c1ccc(CNC(=O)c2ccc(O)c(C=O)c2)cc1 [Compound 73, N-(4-(2-(2-aminopyridin-3-yl)-5-phenyl-3H-imidazo[4,5-b]pyridin-3-yl)benzyl)-3-formyl-4-hydroxybenzamide] | small level of a covalent complex | 1.57 | 3.8 | 0.417 | 2.1 | 22 | < 0.1 | < 0.1 | 0.1 to 0.5 | presence of a covalent complex |  |  | selective for complex formation with AKT1 E17K
Nc1ncccc1-c1nc2ccc(-c3ccccc3)nc2n1-c1ccc(CNC(=O)Cc2ccc(C=O)c(O)c2F)cc1 [Compound 94, N-({4-[2-(2-aminopyridin-3-yl)-5-phenylimidazo[4,5-b]pyridin-3-yl]phenyl}methyl)-2-(2-fluoro-4-formyl-3-hydroxyphenyl)acetamide] | presence of a covalent complex | 1.85 | 4.6 | 0.403 | 2.5 | 22 | < 0.1 | < 0.1 | 0.1 to 0.5 | presence of a covalent complex | Essentially no covalent complex formation | Essentially no covalent complex formation | 
Nc1ncccc1-c1nc2ccc(-c3ccccc3)nc2n1-c1ccc(CNC(=O)Cc2ccc(C=O)c(O)c2)cc1 [Compound 132, N-(4-(2-(2-aminopyridin-3-yl)-5-phenyl-3H-imidazo[4,5-b]pyridin-3-yl)benzyl)-2-(4-formyl-3-hydroxyphenyl)acetamide] | presence of covalent complex |  |  |  | 3.2 | 23 | < 0.1 | < 0.1 | 0.1 to 0.5 | presence of covalent complex | Essentially no covalent complex formation | Essentially no covalent complex formation | 
Cc1ccc2nc(-c3cccnc3N)n(-c3ccc(C4(NC(=O)Cc5ccc(C=O)c(O)c5F)CC4)cc3)c2n1 [Compound 139, N-(1-{4-[2-(2-aminopyridin-3-yl)-5-methylimidazo[4,5-b]pyridin-3-yl]phenyl}cyclopropyl)-2-(2-fluoro-4-formyl-3-hydroxyphenyl)acetamide] | presence of a covalent complex |  |  | 0.797 | 1.7 | 20 | < 0.1 | < 0.1 | 0.1 to 0.5 | significant presence of a covalent complex | lower level of covalent complex formation | Essentially no covalent complex formation | selective for complex formation with AKT1 E17K
Nc1ncccc1-c1nc2ccc(-n3cccn3)nc2n1-c1ccc(C2(NC(=O)Cc3ccc(C=O)c(O)c3F)CC2)cc1 [Compound 141, N-(1-{4-[2-(2-aminopyridin-3-yl)-5-(pyrazol-1-yl)imidazo[4,5-b]pyridin-3-yl]phenyl}cyclopropyl)-2-(2-fluoro-4-formyl-3-hydroxyphenyl)acetamide] | presence of a covalent complex |  |  |  | 1.2 | 4.4 | < 0.1 | < 0.1 | < 0.1 | significant presence of a covalent complex | Essentially no covalent complex formation | Essentially no covalent complex formation | selective for complex formation with AKT1 E17K
